Each block holds one compound with its values, some of them ahead of it. Square brackets hold non-standard residues; d marks the D form. Peptide text beside a SMILES is read from it. * marks the point of attachment. pGlu = O=C1CC[C@@H](C(=O)O)N1; Boc = CC(C)(C)OC(=O)*; Bz = O=C(c1ccccc1)*; ClAc = O=C(CCl)*
How the values were obtained:
[1] = biological target: T1, ACE (Oryctolagus cuniculus, UniProt P12822); details: cited from earlier work
T1 sequence (P12822 34-1310): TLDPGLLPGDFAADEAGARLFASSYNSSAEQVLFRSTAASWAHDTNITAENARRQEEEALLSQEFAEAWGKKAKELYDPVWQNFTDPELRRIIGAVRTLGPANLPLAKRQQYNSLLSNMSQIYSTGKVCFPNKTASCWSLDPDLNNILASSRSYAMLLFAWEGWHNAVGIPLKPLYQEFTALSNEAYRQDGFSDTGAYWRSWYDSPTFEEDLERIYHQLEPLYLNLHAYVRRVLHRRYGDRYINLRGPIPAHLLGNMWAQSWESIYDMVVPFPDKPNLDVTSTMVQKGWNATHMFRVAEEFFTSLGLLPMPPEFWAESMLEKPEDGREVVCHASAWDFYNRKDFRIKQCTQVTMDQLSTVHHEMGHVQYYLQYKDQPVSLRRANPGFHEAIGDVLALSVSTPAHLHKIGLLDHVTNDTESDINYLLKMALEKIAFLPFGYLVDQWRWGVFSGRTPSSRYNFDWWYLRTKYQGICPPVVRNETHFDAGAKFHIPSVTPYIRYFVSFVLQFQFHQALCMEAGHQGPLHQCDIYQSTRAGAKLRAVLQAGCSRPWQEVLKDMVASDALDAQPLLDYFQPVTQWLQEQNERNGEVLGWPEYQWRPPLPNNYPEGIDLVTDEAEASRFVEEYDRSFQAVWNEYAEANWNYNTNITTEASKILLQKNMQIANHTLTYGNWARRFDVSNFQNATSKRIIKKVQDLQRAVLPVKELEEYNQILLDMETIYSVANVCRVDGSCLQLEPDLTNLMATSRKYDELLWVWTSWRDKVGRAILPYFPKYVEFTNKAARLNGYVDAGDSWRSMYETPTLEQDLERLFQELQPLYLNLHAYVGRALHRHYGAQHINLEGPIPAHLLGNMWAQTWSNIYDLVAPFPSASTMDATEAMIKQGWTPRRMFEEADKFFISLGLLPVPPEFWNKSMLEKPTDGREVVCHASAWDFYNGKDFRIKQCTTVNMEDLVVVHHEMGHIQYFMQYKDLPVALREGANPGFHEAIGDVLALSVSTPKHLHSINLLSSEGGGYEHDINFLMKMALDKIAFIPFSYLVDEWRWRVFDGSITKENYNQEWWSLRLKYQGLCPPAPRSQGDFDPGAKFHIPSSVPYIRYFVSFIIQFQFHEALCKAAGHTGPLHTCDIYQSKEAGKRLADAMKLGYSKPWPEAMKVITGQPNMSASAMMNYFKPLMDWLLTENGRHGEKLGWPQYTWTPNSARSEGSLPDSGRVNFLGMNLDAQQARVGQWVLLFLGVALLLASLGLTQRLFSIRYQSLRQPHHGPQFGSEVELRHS

[2] = Solvent extraction of substrate and remnant product from acidified reaction mixture; type: physicochemical; details: toluene and acidified reaction mixture in approximately equal volumes at room temperature
Text: While a variety of organic solvents may be suitable for the extraction step, it is preferred to employ toluene.

[3] = biological target: T1, ACE; details: compared with a buffer presumably lacking chloride; cited from earlier work
[4] = test system: enzyme isolated from hog lung (ACE); details: cited from earlier work
[5] = sulfate ion 0.6 M in the presence of 0.1 M chloride, pH 8

Structure (SMILES): C[C@H](NC(=O)[C@H](Cc1ccccc1)NC(=O)CCl)C(=O)N1CCC[C@H]1C(=O)O [chloroacetylPheAlaPro] (ClAc-Phe-Ala-Pro-OH)
ACE inhibition [1]: ACE inhibitors

Structure (SMILES): C[C@H](NC(=O)[C@@H](N)Cc1ccccc1)C(=O)N1CCC[C@H]1C(=O)O [PheAlaPro] (H-Phe-Ala-Pro-OH)
ACE inhibition [1]: inhibit ACE

fraction entering the toluene phase [2]: Approximately 88%
Structure (SMILES): O=C(N[C@@H](Cc1ccccc1)C(=O)O)c1ccccc1 [^3 H-benzoylPhe, benzoylPhe]

Structure (SMILES): C[C@H](NC(=O)[C@H](Cc1c[nH]c2ccccc12)NC(=O)[C@@H]1CCC(=O)N1)C(=O)N1CCC[C@H]1C(=O)O [<GluTrpAlaPro] ([pGlu]WAP-OH)
ACE inhibition [1]: ACE inhibitors

Structure (SMILES): C[C@H](NC(=O)[C@H](Cc1c[nH]c2ccccc12)NC(=O)[C@H](CCCCN)NC(=O)[C@@H]1CCC(=O)N1)C(=O)O [<GluLysTrpAla] ([pGlu]KWA-OH)
ACE inhibition [1]: ACE inhibitors

Structure (SMILES): C[C@H](NC(=O)[C@H](Cc1c[nH]c2ccccc12)NC(=O)[C@H](CCCCN)NC(=O)[C@@H]1CCC(=O)N1)C(=O)N1CCC[C@H]1C(=O)O [SQ20475, <GluLysTrpAlaPro] ([pGlu]KWAP-OH)
rate of cleavage in the presence of chloride [3]: more slowly

Structure (SMILES): O=C(O)CNC(=O)CNC(=O)CNC(=O)c1ccccc1 [HipGlyGly] (Bz-Gly-Gly-Gly-OH)
hydrolysis in the absence of NaCl ([4]; Na2 SO4 0.001 M to 0.6 M, no NaCl): no hydrolysis
decrease of Km by sulfate [4, 5]: about 15%
increase of Vmax by sulfate [4, 5]: about 5 fold

Structure (SMILES): C[C@H](NC(=O)[C@H](Cc1ccccc1)NC(=O)OC(C)(C)C)C(=O)N1CCC[C@H]1C(=O)O [t-butyloxycarbonylPheAlaPro] (Boc-Phe-Ala-Pro-OH)
ACE inhibition [1]: inhibit ACE
